From ChEMBL document CHEMBL3785015, “Phenobarbital pharmacokinetics and bioavailability in adults” (J Clin Pharmacol, 1982) come the findings set out here.

By Tmax is commonly meant the time at which the peak concentration occurs. Usually bioavailability stands for the share of a dose that reaches the circulation, judged against a reference dose that is usually intravenous. A higher bioavailability goes with much systemic uptake. As usually defined, the Cmax is the peak of the concentration-time curve. What is called clearance is the volume of plasma or blood freed of the substance per unit of time.

A value given as a limit tells only on which side of the number the result lay.

Data set [1] is described as follows: Tmax in human. It counts as ADME, organism-based. The note with it: in vivo.
Data set [2] in a line: Drug dissolution in acid medium after 90 mins. The following applies: 1.5 h. It counts as physicochemical.
Data set [3] concerns Homo sapiens. In words: Disposition rate constant at distribution phase in healthy human subjects (6 subjects) at 2.6 mg/kg, iv by HPLC method. It counts as ADME, organism-based. The note with it: in vivo.
Data set [4] deals with Homo sapiens. The data set is described as follows: Distribution half life in healthy human subjects (6 subjects) at 2.6 mg/kg, iv by HPLC method. Type of data set: ADME, organism-based. The note with it: in vivo.
A short description of data set [5]: Oral bioavailability in human subjects receiving phenobarbital tablets after having received phenobarbital infusion for […] withdrawal. Type of data set: ADME, organism-based. The following applies: in vivo.
The nature of data set [6]: Elimination half life in healthy human subjects (6 subjects) at 2.6 mg/kg, iv measured during intravenous control dose (period-1) by HPLC method. It counts as ADME, organism-based. The following applies: in vivo, read-out: beta t1/2 (converted).
The nature of data set [7]: Cmax in healthy human subjects (6 subjects) at 2.9 mg/kg, po by HPLC method. Type of data set: ADME, organism-based. Also on record: dose 2.9 mg/kg, route oral. The following applies: in vivo.
Data set [8] in a line: Oral bioavailability in healthy human subjects (6 subjects) at 2.9 mg/kg by HPLC method. The following applies: in vivo. Type of data set: ADME, organism-based.
Data set [9] can be described thus: Terminal half life in healthy human subjects (6 subjects) at 2.6 mg/kg, iv by HPLC method. Type of data set: ADME, organism-based. The following applies: in vivo, read-out: beta t1/2 (converted).
Data set [10] in a line: Tmax in adult human. The note with it: in vivo. It counts as ADME, organism-based.
A short description of data set [11]: Elimination half life in healthy human subjects (6 subjects) measured during alkaline diuresis dose (period-2) by HPLC method. It counts as ADME, organism-based. The following applies: in vivo, read-out: beta t1/2 (converted).
The nature of data set [12]: Tmax in healthy human subjects (6 subjects) at 2.9 mg/kg, po by HPLC method. It counts as ADME, organism-based. The note with it: in vivo.
Data set [13] is described as follows: Apparent volume of distribution in healthy human subjects (6 subjects) at 2.6 mg/kg, iv by HPLC method. Type of data set: ADME, organism-based. The following applies: in vivo, read-out: Vd(app).
Data set [14] can be described thus: Corrected oral bioavailability in healthy human subjects (6 subjects) at 2.9 mg/kg by HPLC method. It counts as ADME, organism-based. The following applies: in vivo.
Data set [15] is described as follows: Drug dissolution in 0.1N HCl measured during 15 mins. It counts as physicochemical. The note with it: buffer, 0.25 h.
Data set [16] is described as follows: Drug dissolution in water measured during 15 mins. Type of data set: physicochemical. The note with it: buffer, 0.25 h.
Data set [17] in a line: Drug dissolution in aqueous medium after 90 mins. It counts as physicochemical. The note with it: buffer, 1.5 h.
The nature of data set [18]: Terminal half life in healthy human subjects (6 subjects) at 2.9 mg/kg, po by HPLC method. Type of data set: ADME, organism-based. The following applies: in vivo, read-out: beta t1/2 (converted).
A short description of data set [19]: Total body clearance in healthy human subjects (6 subjects) at 2.6 mg/kg, iv by HPLC method. Type of data set: ADME, organism-based. The following applies: in vivo.
Data set [20] is described as follows: Elimination half life in healthy human subjects (6 subjects) at 2.9 mg/kg, po measured during oral dose (period-3) by HPLC method. Type of data set: ADME, organism-based. The note with it: in vivo, read-out: beta t1/2 (converted).
The nature of data set [21]: Disposition rate constant at terminal phase in healthy human subjects (6 subjects) at 2.6 mg/kg, iv by HPLC method. It counts as ADME, organism-based. The note with it: in vivo.
Data set [22] is described as follows: Disposition rate constant at terminal phase in healthy human subjects (6 subjects) at 2.9 mg/kg, po by HPLC method. The following applies: in vivo. Type of data set: ADME, organism-based.
Data set [23] is described as follows: Renal clearance in healthy human subjects (6 subjects) at 2.6 mg/kg, iv by HPLC method. The note with it: in vivo. Type of data set: ADME, organism-based, Kidney.

Turning to `CCC1(c2ccccc2)C(=O)NC(=O)NC1=O` [PHENOBARBITAL], the Tmax was at most 18 h in [1], 50 h in data set [10] and 2.3 h in data set [12]. In addition, the Drug dissolution came to 61.3% in data set [2], 81.5% in data set [15], 80% in data set [16] and 86% in data set [17]. In addition, the K in [3] is 3.8 h⁻¹. This compound registered an alphat1/2 in data set [4] of 0.18 h. In addition, the bioavailability in [5] turned out to be 100%; in data set [8] it was 83.4%; in [14], 94.9%. The half-life in [6] is 147 h; in data set [9], 139 h; in [11], 128 h; in [18], 122 h; in data set [20] it was 149 h. For the same compound, the highest level in data set [7] (Cmax) was 5500 ng/mL. Also, the Vd in data set [13] was 0.6 L/kg. The compound also showed a clearance in data set [19] of 3 mL/h/kg. The k el was 1.39e-06 s⁻¹ in data set [21] and 1.58e-06 s⁻¹ in data set [22]. In addition, the CL renal in data set [23] was 0.8 mL/h/kg.
